{"source": "patent US4339440A", "about": "“Enkephalin analogs and a process for the preparation thereof” (priority 1980, dated 1982)", "key": {"anesthetized cats": {"tested_on": "anesthetized cats", "assay": "Cardiovascular effects in cats anesthetized with pentobarbital (blood pressure, heart rate, vasomotor reflex elicited by carotis occlusion)", "format": "in vivo", "procedure": "In addition to the effects on the blood pressure and heart rate, the actions on the vasomotor reflex elicited by carotis occlusion, were also studied. […] The duration of the former effects was 20-25 min., while that of the latter was 40-60 min. […] It is noteworthy that the reference compound morphine […] hypotension of similar magnitude produced by 0.1 mg/kg of peptides only in doses higher than 1.0 mg/kg (Table 2).\n(a) Cats of both sexes, weighing 3000-4000 g, anesthetized with 35 mg/kg pentobarbital, i.p.\n(b) C.O.: Inhibition of vasomotor reflex elicited by carotis occlusion;"}, "mouse vas deferens (MVD)": {"tested_on": "mouse vas deferens (MVD)", "settings": "literature comparison of GPI and MVD preparations; cited from earlier work"}}, "note": "Square brackets hold non-standard residues; d marks the D form. Ends that are not written are not given here.", "data": [{"molecule": "CN1CC[C@]23c4c5ccc(O)c4O[C@H]2[C@@H](O)C=C[C@H]3[C@H]1C5", "note": "[Morphine, morphine]", "values": [{"measurement": "Decrease of heart rate", "setting": "anesthetized cats; 0.2 mg/kg i.v.", "value": ".phi."}, {"measurement": "Fall in blood pressure", "setting": "anesthetized cats; 0.2 mg/kg i.v.", "value": "6.7 ± 2.1", "unit": "mm Hg"}, {"measurement": "Inhibition of C.O. (vasomotor reflex elicited by carotis occlusion)", "setting": "anesthetized cats; 0.2 mg/kg i.v.", "value": ".phi."}, {"measurement": "Decrease of heart rate", "setting": "anesthetized cats; 1.0 mg/kg i.v.", "value": "10.2 ± 2.3", "unit": "beat/min."}, {"measurement": "Fall in blood pressure", "setting": "anesthetized cats; 1.0 mg/kg i.v.", "value": "16.7 ± 3.2", "unit": "mm Hg"}, {"measurement": "Inhibition of C.O. (vasomotor reflex elicited by carotis occlusion)", "setting": "anesthetized cats; 1.0 mg/kg i.v.", "value": "+ (inhibition is smaller than 50%)"}, {"measurement": "Decrease of heart rate", "setting": "anesthetized cats; 5.0 mg/kg i.v.", "value": "16.7 ± 3.5", "unit": "beat/min."}, {"measurement": "Fall in blood pressure", "setting": "anesthetized cats; 5.0 mg/kg i.v.", "value": "33.6 ± 6.7", "unit": "mm Hg"}, {"measurement": "Inhibition of C.O. (vasomotor reflex elicited by carotis occlusion)", "setting": "anesthetized cats; 5.0 mg/kg i.v.", "value": "++ (inhibition is higher than 50%)"}, {"measurement": "Dose eliciting hypotension of similar magnitude to that produced by 0.1 mg/kg of peptides", "setting": "anesthetized cats; i.v.", "value": "higher than 1.0 mg/kg"}, {"measurement": "Activity on MVD compared with GPI (in words)", "setting": "mouse vas deferens (MVD)", "value": "higher activity on GPI"}]}, {"molecule": "Tyr-D-Ala-Gly-MePhe-Met(O)-ol", "values": [{"measurement": "Activity on MVD compared with GPI (in words)", "setting": "mouse vas deferens (MVD)", "value": "twice as active on GPI as on MVD"}]}, {"molecule": "Tyr-D-Ala-Gly-Phe-D-Leu", "values": [{"measurement": "Activity on MVD compared with GPI (in words)", "setting": "mouse vas deferens (MVD)", "value": "more active on MVD than on GPI"}]}, {"molecule": "Y[dM]GFP-NH2", "values": [{"measurement": "Activity on MVD compared with GPI (in words)", "setting": "mouse vas deferens (MVD)", "value": "the same level of activity on both preparations"}]}, {"molecule": "β-Endorphine: β-Endorphine of natural occurrence (a 31-membered polypeptide) (YGGFMTSEKSQTPLVTLFKNAIIKNAYKKGE; Beta-endorphin; UniProt P01189 237-267, looked up)", "values": [{"measurement": "Activity on MVD compared with GPI (in words)", "setting": "mouse vas deferens (MVD)", "value": "equally active on GPI and MVD"}]}]}
